Test results reported in paper PMC10447463, “Data-mining unveils structure–property–activity correlation of viral infectivity enhancing self-assembling peptides” (Nature Communications, 2023).

Key:
[1] = Aggregate analysis by widefield fluorescence microscopy; type: physicochemical
Procedure, shortened: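 First, each peptide (1 mg/mL in PBS, from DMSO stock) incubates 1 d at room temperature; next, it is mixed with 50 µM ThT to 0.1 mg/mL; finally, widefield images at 10x (ex 480/40, em 527/30 nm) are analysed by object counting for particles exceeding 10 µm^2, in triplicate.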

[2] = system: HIV-1 infection of TZM-bl cells; details: literature report; cited from earlier work
Text: page 30: 8. Amyloid peptides from functional and pathogenic contexts Table S1 Selected amyloid peptides from protein data bases and literature reports. Note, that the peptide KLVFFAK, derived from amyloid ab was reported for retroviral transduction enhancement, however with very low efficiencies (> 4 fold compared to virus only). 33 ”+” indicates reported ThT fluorescence (ThT) or fibril formation, “0” indicates no data reported. All peptides were synthesized via Fmoc SPPS protocol and purchased . w ≥ . sequence ThT fibril pI charge hfauchere derived from original context ref. IKFLSVN + + 9.7 ...

[3] = previously reported peptides only; ref sieste 2021 or Schilling2019; cited from earlier work
Text: Supplement 41467_2023_40663_MOESM7_ESM.zip/FigS17.csv, table | column: Conversion Rate / % ( from sieste 2021 or Schilling2019)

[4] = Fig S8 panels A, C, 3 fields of 1330 µm x 1330 µm
[5] = Fig S8 panels B, D, average aggregate area, 3 fields of 1330 µm x 1330 µm
[6] = Fig S8 panels B, D, median aggregate area, 3 fields of 1330 µm x 1330 µm
[7] = Fig S8 panels B, D, 3 fields of 1330 µm x 1330 µm
[8] = Fig S8 panels B, D, widefield fluorescence microscopy, 3 fields of 1330 µm x 1330 µm

For RGDSGGGGGGKIKIQIC [TM114 / RC17], which “Avg Area in 3 *(1330 µm *1330 µm)” value ([1]; Fig S8 panels A, C) is on record?
The value was 372.8.

And the “Log 10 Number of aggregates in 3 * (1330 µm *1330 µm)” value (“Log 10 Number of aggregates in 3 *” for short) ([1]; Fig S8 panels A, C)?
The value was 1.857.

What about the “Median Area in 3 * (1330 µm *1330 µm)” value ([1]; Fig S8 panels A, C) of the same substance?
Its value is 53.0945.

And the “log Avg Area in 3 * ( (1330 µm *1330 µm))” value (“log Avg Area in 3 *” for short) ([1]; Fig S8 panels A, C)?
The value was 2.572.

And the “log Median Area in 3 * ( (1330 µm *1330 µm))” value (from here on “log Median Area in 3 *”) ([1]; Fig S8 panels A, C)?
The value was 1.725.

And the “log Total Area of all particles in 3 * (1330 µm *1330 µm)” value (“log Total Area of all particles in 3 *” for short) ([1]; Fig S8 panels A, C)?
The value was 4.429.

What about the “Number of aggregates in 3 * (1330 µm *1330 µm)” value [1, 4] of the same substance?
The value was 72.

And the “Avg Area in 3 *(1330 µm *1330 µm)” value [1, 5]?
Its value is 372.8.

What about the “Median Area in 3 * (1330 µm *1330 µm)” value [1, 6] of the same substance?
Its value is 53.0945.

And the “Total Area of all particles in 3 * (1330 µm *1330 µm)” value [1, 7]?
The value was 26843.97667.

What about the “Number of aggregates in 3 * (1330 µm *1330 µm)” value [1, 8] of the same substance?
Its value is 72.

Which “retroviral transduction enhancement compared to virus only” value [2] does the source give for KLVFFAK [reference compound] here?
Its value is greater than 4 fold.

Which “Conversion Rate / % ( from sieste 2021 or Schilling2019)” value (“Conversion Rate / %” for short) [3] does the source give for KFKFQFFF [TG12] here?
Its value is 99%.

With RGDKIKIQINM [MG8a / CN17] as the substance, how does the “Conversion Rate / %” value [3] read?
Its value is 48%.

With KIKIQIII [TG7] as the substance, how does the “Conversion Rate / %” value [3] read?
The value was 87%.

For KIKQIIN [JGA3], which “Avg Area in 3 *(1330 µm *1330 µm)” value ([1]; Fig S8 panels A, C) is on record?
The value was 51.51.

And the “Log 10 Number of aggregates in 3 *” value ([1]; Fig S8 panels A, C)?
The value was 1.067.

What about the “Median Area in 3 * (1330 µm *1330 µm)” value ([1]; Fig S8 panels A, C) of the same substance?
Its value is 15.7.

And the “log Avg Area in 3 *” value ([1]; Fig S8 panels A, C)?
Its value is 1.712.

What about the “log Median Area in 3 *” value ([1]; Fig S8 panels A, C) of the same substance?
The value was 1.196.

And the “log Total Area of all particles in 3 *” value ([1]; Fig S8 panels A, C)?
Its value is 2.779.

What about the “Number of aggregates in 3 * (1330 µm *1330 µm)” value [1, 4] of the same substance?
The value was 11.67.

And the “Avg Area in 3 *(1330 µm *1330 µm)” value [1, 5]?
The value was 51.51.

And the “Median Area in 3 * (1330 µm *1330 µm)” value [1, 6]?
Its value is 15.7.

And the “Total Area of all particles in 3 * (1330 µm *1330 µm)” value [1, 7]?
The value was 600.94.

And the “Number of aggregates in 3 * (1330 µm *1330 µm)” value [1, 8]?
The value was 11.67.

For KIKIQIN [JGB3], which “Avg Area in 3 *(1330 µm *1330 µm)” value ([1]; Fig S8 panels A, C) is on record?
Its value is 197.4.

What about the “Log 10 Number of aggregates in 3 *” value ([1]; Fig S8 panels A, C) of the same substance?
Its value is 0.6021.

What about the “Median Area in 3 * (1330 µm *1330 µm)” value ([1]; Fig S8 panels A, C) of the same substance?
The value was 197.8005.

What about the “log Avg Area in 3 *” value ([1]; Fig S8 panels A, C) of the same substance?
Its value is 2.295.

What about the “log Median Area in 3 *” value ([1]; Fig S8 panels A, C) of the same substance?
Its value is 2.296.

What about the “log Total Area of all particles in 3 *” value ([1]; Fig S8 panels A, C) of the same substance?
Its value is 2.897.

What about the “Number of aggregates in 3 * (1330 µm *1330 µm)” value [1, 4] of the same substance?
The value was 4.

What about the “Avg Area in 3 *(1330 µm *1330 µm)” value [1, 5] of the same substance?
Its value is 197.4.

What about the “Median Area in 3 * (1330 µm *1330 µm)” value [1, 6] of the same substance?
Its value is 197.8005.

What about the “Total Area of all particles in 3 * (1330 µm *1330 µm)” value [1, 7] of the same substance?
The value was 789.7.

And the “Number of aggregates in 3 * (1330 µm *1330 µm)” value [1, 8]?
The value was 4.

For HHHHKIKIQINMYYYY [TM16], which “Avg Area in 3 *(1330 µm *1330 µm)” value ([1]; Fig S8 panels A, C) is on record?
Its value is 97.09.

What about the “Log 10 Number of aggregates in 3 *” value ([1]; Fig S8 panels A, C) of the same substance?
The value was 2.3686.

And the “Median Area in 3 * (1330 µm *1330 µm)” value ([1]; Fig S8 panels A, C)?
Its value is 27.74.

What about the “log Avg Area in 3 *” value ([1]; Fig S8 panels A, C) of the same substance?
Its value is 1.987.

And the “log Median Area in 3 *” value ([1]; Fig S8 panels A, C)?
Its value is 1.443.

What about the “log Total Area of all particles in 3 *” value ([1]; Fig S8 panels A, C) of the same substance?
The value was 4.356.

What about the “Number of aggregates in 3 * (1330 µm *1330 µm)” value [1, 4] of the same substance?
The value was 233.7.

What about the “Avg Area in 3 *(1330 µm *1330 µm)” value [1, 5] of the same substance?
Its value is 97.09.

And the “Median Area in 3 * (1330 µm *1330 µm)” value [1, 6]?
Its value is 27.74.

What about the “Total Area of all particles in 3 * (1330 µm *1330 µm)” value [1, 7] of the same substance?
The value was 22686.609.

What about the “Number of aggregates in 3 * (1330 µm *1330 µm)” value [1, 8] of the same substance?
The value was 233.7.

With HIHIQIC [CN12] as the substance, how does the “Avg Area in 3 *(1330 µm *1330 µm)” value ([1]; Fig S8 panels A, C) read?
Its value is 747.6.

And the “Log 10 Number of aggregates in 3 *” value ([1]; Fig S8 panels A, C)?
The value was 1.523.

What about the “Median Area in 3 * (1330 µm *1330 µm)” value ([1]; Fig S8 panels A, C) of the same substance?
The value was 85.979.

And the “log Avg Area in 3 *” value ([1]; Fig S8 panels A, C)?
The value was 2.874.

And the “log Median Area in 3 *” value ([1]; Fig S8 panels A, C)?
Its value is 1.934.

What about the “log Total Area of all particles in 3 *” value ([1]; Fig S8 panels A, C) of the same substance?
The value was 4.397.

And the “Number of aggregates in 3 * (1330 µm *1330 µm)” value [1, 4]?
Its value is 33.33.

And the “Avg Area in 3 *(1330 µm *1330 µm)” value [1, 5]?
The value was 747.6.

What about the “Median Area in 3 * (1330 µm *1330 µm)” value [1, 6] of the same substance?
Its value is 85.979.

And the “Total Area of all particles in 3 * (1330 µm *1330 µm)” value [1, 7]?
Its value is 24920.46633.

And the “Number of aggregates in 3 * (1330 µm *1330 µm)” value [1, 8]?
Its value is 33.33.
